The source of these data is PMC6332165, “Study of the Relationships between the Structure, Lipophilicity and Biological Activity of Some Thiazolyl-carbonyl-thiosemicarbazides and Thiazolyl-azoles” (Molecules, 2015).

The subject of data set [1] is oxidative stress. Details: method as in PMID 23504664. Conditions: turpentine oil-induced inflammation, mean ± SD; cited from earlier work.
The test system of data set [2] is turpentine oil-induced inflammation. Details: method as in PMID 23504664; Leukocytes (L, leukocytes count):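 lower leukocyte count means stronger anti-inflammatory effect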. Conditions: cited from earlier work; for Leukocytes (L, leukocytes count) / PMN (polymorphonuclear leukocytes, differential leucocyte count): mean ± SD.
Data set [3] can be described thus: Lipophilicity by reversed-phase thin-layer chromatography (RP-TLC), isopropanol-water mobile phase. It counts as physicochemical. Conditions: RP-18F254s TLC, iso-propanol-water 45-65% (v/v); for RM0 (lipophilicity estimation parameter, intercept of RM = RM0 + bC): extrapolated to pure water. Here is the method:
Some of the parameters resulting from a RP-TLC may be associated to the lipophilic character of the analytes. The retention parameters (RM) are calculated by means of well-known Batte-Smith and Westall Equation (1): RM = log (1/RF − 1) (1)
Generally, the RM values determined by RP-TLC are linearly dependent on the concentration of the organic modifier (C) in the mobile phase Equation (2): RM = RM0 + bC (2) where b and RM0 are, respectively, the slope and the intercept of Equation (2). […] Additionally, it has been stated that not only the RM0, but also the slope, b, as a characteristic of the specific hydrophobic surface area of the compounds, can be used as an estimation of lipophilicity. The advantages of TLC methods consist in the small quantity of compounds needed for the determination, and the rapidity and simplicity of the method. Also, they are inexpensive, rapid and easy to perform.
Chromatography was performed on 20 × 20 cm RP-18F254s TLC precoated silica plates (Merck; Darmstadt, Germany). Solutions (1 mg/mL) of the tested compounds were prepared in iso-propanol, and 3 μL aliquots were spotted in duplicate on the plates by hand, 10 mm from the bottom edge and 20 mm apart. The mobile phases were composed of the iso-propanol-water binary mixtures, with a varying content of organic modifier between 45% and 65% (v/v) in 5% increments, as the study compounds differed considerably in their retention. Chromatography was performed in a normal developing chamber at room temperature, the developing distance being 10 cm. The chromatography chamber was saturated with the mobile phase for 30 min before use. After the development (30–60 min), the plates were air dried at room temperature and examined under a UV lamp (λ = 254 nm), and the RF (retardation factor) values were measured manually by a digital caliper. The experiments were performed in triplicate.

The test system of data set [4] is nitric oxide (NO) synthesis. Also on record: method as in PMID 23504664; unit not given here. As to conditions: turpentine oil-induced inflammation, mean ± SD; cited from earlier work.
Data set [5] has as its system phagocytes. Details: method as in PMID 23504664. As to conditions: turpentine oil-induced inflammation, mean ± SD; cited from earlier work.

As to `Cc1nc(-c2ccc(Br)cc2)sc1-c1nnc(S)o1` [Th-20], in data set [1], the “OSI (oxidative stress index)” value is reported as 7.32 ± 3.2, the “TAR (total antioxidant response)” value was 1.106 ± 0.003 and the “TOS (total oxidative status)” value is listed as 81.022 ± 13.2. In addition, in data set [2], the “Leukocytes (L, leukocytes count)” value is listed as 4837.5 ± 1305 and the “PMN (polymorphonuclear leukocytes, differential leucocyte count)” value was 59.2 ± 5.6%. For the same molecule, in data set [3], the “b (slope of RM = RM0 + bC, specific hydrophobic surface area)” value is recorded as −1.283 and the “RM0 (lipophilicity estimation parameter, intercept of RM = RM0 + bC)” value is on record as 0.393. In data set [4], the “NO (nitric oxide synthesis)” value is given as 43.288 ± 5.0. Further, in data set [5], the “PA (phagocytic activity)” value is 20 ± 1.5 and the “PI (phagocytosis index)” value is given as 16 ± 3.0%.

Regarding `Cc1nc(-c2ccccc2)sc1-c1nnc(S)s1` [Th-21], in data set [1], the “OSI (oxidative stress index)” value is recorded as 6.03 ± 4.5, the “TAR (total antioxidant response)” value was 1.114 ± 0.007 and the “TOS (total oxidative status)” value is recorded as 67.137 ± 10.6. In data set [2], the “Leukocytes (L, leukocytes count)” value is recorded as 3000 ± 241 and the “PMN (polymorphonuclear leukocytes, differential leucocyte count)” value is 52.6 ± 2.1%. Moreover, the “anti-inflammatory and antioxidant effects (in words)” value in data set [2] (overall ranking within the series) is “best anti-inflammatory and antioxidant effects”. For the same molecule, in data set [3], the “b (slope of RM = RM0 + bC, specific hydrophobic surface area)” value is −1.286 and the “RM0 (lipophilicity estimation parameter, intercept of RM = RM0 + bC)” value is reported as 0.620. For the same molecule, the “NO (nitric oxide synthesis)” value in data set [4] is given as 43.737 ± 6.2. For the same molecule, in data set [5], the “PA (phagocytic activity)” value is listed as 23 ± 1.9 and the “PI (phagocytosis index)” value is 14.5 ± 4.6%.

Consider `Cc1nc(-c2ccccc2)sc1-c1nnc(S)n1-c1ccccc1` [Th-9], for which, in data set [1], the “OSI (oxidative stress index)” value is listed as 6.25 ± 5.2, the “TAR (total antioxidant response)” value is 1.101 ± 0.001 and the “TOS (total oxidative status)” value is 68.780 ± 16.2. Besides, in data set [2], the “Leukocytes (L, leukocytes count)” value is listed as 9000 ± 428 and the “PMN (polymorphonuclear leukocytes, differential leucocyte count)” value is 67.4 ± 3.0%. In addition, in data set [3], the “b (slope of RM = RM0 + bC, specific hydrophobic surface area)” value is given as −2.630 and the “RM0 (lipophilicity estimation parameter, intercept of RM = RM0 + bC)” value is listed as 1.479. Moreover, the “NO (nitric oxide synthesis)” value in data set [4] is recorded as 65.479 ± 4.8. Besides, in data set [5], the “PA (phagocytic activity)” value is 20.5 ± 0.9 and the “PI (phagocytosis index)” value is reported as 21 ± 7.0%.

`Cc1nc(-c2ccc(Br)cc2)sc1-c1nnc(S)n1-c1ccccc1` [Th-11]: in data set [1], the “OSI (oxidative stress index)” value is 6.08 ± 4.9, the “TAR (total antioxidant response)” value is 1.092 ± 0.003 and the “TOS (total oxidative status)” value is on record as 66.394 ± 8.9. In addition, in data set [2], the “Leukocytes (L, leukocytes count)” value is given as 11,137.5 ± 483 and the “PMN (polymorphonuclear leukocytes, differential leucocyte count)” value is 86.4 ± 2.6%. In data set [3], the “b (slope of RM = RM0 + bC, specific hydrophobic surface area)” value was −3.133 and the “RM0 (lipophilicity estimation parameter, intercept of RM = RM0 + bC)” value is reported as 2.020. For the same molecule, in data set [4], the “NO (nitric oxide synthesis)” value is recorded as 66.799 ± 5.9. In data set [5], the “PA (phagocytic activity)” value is listed as 19.75 ± 2.4 and the “PI (phagocytosis index)” value is reported as 21 ± 1.1%.
